According to patent US6420399B1, “Topical ophthalmic mast cell stabilizers for treating allergic eye disease” (Alcon Manufacturing, Ltd., priority 1999, dated 2002):

What was measured:
[1] = Surface Activity Rating: change in surface pressure of SOPC monolayer in Langmuir trough; assay type: physicochemical; details: initial surface pressure 30 mN/m, 24° C.
Excerpt: The Surface Activity Rating is obtained by determining the interaction of an amphipathic anti-allergy drug (“test compound”) in buffer alone with a phospholipid monolayer. Test compound/mast cell membrane interaction is mimicked in a phospholipid monolayer spread onto an aqueous buffer in a modified Langmuir trough. In this system, test compound-membrane interaction is quantified by determining the change in surface pressure (Δπ in mN/m) of a monomolecular film of 1-stearoyl-2-oleoyl-sn-glycero-3-phosphocholine (SOPC) spread at an initial surface pressure of 28-32 mN/m on an aqueous buffer sub-phase. The initial surface pressure of 28-32 mN/m is chosen because this pressure mimics that of most mammalian cell membranes. […]
Surface pressure is measured using an automated interfacial monitor-controller built around a Cahn 27 electrobalance equipped with a 24 ga. nichrome wire Wilhelmy probe. […]
The effect of test compound on surface pressure is determined by a continuous exchange of the aqueous phase with a concentrated solution of the test compound in buffer. […] The concentration of test compound in the aqueous phase is determined from the fraction of sub-phase volume exchanged and the concentration of the solute in the concentrated solution. […]

[2] = tested on: human conjunctival mast cells; details: purified preparations of human conjunctival mast cells; Yanni et al. 1996; cited from earlier work
mast cells = details: concentrations higher than those with antihistaminic / stabilizing activity; cited from earlier work

increase in surface pressure (Surface Activity Rating) ([1]; pH 7.5, concentration range of 0-3.5 mM) [mN/m]	increase in surface pressure (Surface Activity Rating) ([1]; pH 7.5, concentration in aqueous sub-phase increased from 0 to 5 mM) [mN/m]	SMILES	effect on histamine release as a function of concentration [2]	effect on histamine release from mast cells as a function of concentration (mast cells)
15	–	CN1CCC(=C2c3ccccc3CC(=O)c3sccc32)CC1 [ketotifen, 4,9-dihydro-4-(1-methyl-4-piperidinyl-idene)-10H-benzo[4,5]cyclohepta-[1,2-b]thiophen-10-one]	biphasic behavior	–
–	–	O=C(O)c1cc(=O)c2c(OCC(O)COc3cccc4oc(C(=O)O)cc(=O)c34)cccc2o1 [cromolyn sodium]	–	biphasic behavior
–	7.1	CN(C)CC/C=C1/c2ccccc2COc2ccc(CC(=O)O)cc21 [olopatadine, Z-11-(3-dimethylaminopropylidene)-6,11-dihydrodibenz[b,e]oxepin-2-acetic acid]	–	does not provoke a release of histamine from mast cells
